Assay results published in patent US10023836B2, “Medium for yeasts” (YAMAGUCHI UNIVERSITY, priority 2012, dated 2018).

Assays:
[1] = tested on: Saccharomyces cerevisiae leucine-requiring RAK778 strain (BY4712 (leu2Δ0) strain); test: Leucine concentration in AKD culture medium, leucine-requiring strain (FIG. 16A); assay type: cell-based
Source text: Leucine concentration in the AKD culture mediums was adjusted to 0%, 0.0001%, 0.001%, 0.01%, 0.1%, and 1%, respectively, and proliferation of a Saccharomyces cerevisiae leucine-requiring RAK778 strain (BY4712 (leu2Δ0) strain) was investigated. […] Given the above-noted results, a preferred leucine concentration was understood to be around 0.1%.

[2] = tested on: Saccharomyces cerevisiae RAK3599 strain; test: Leucine concentration in AKD culture medium, RAK3599 strain (FIG. 16B); assay type: cell-based

CC(C)C[C@H](N)C(=O)O [Leucine, L-Leucine]
concentration at which almost no proliferation was observed [1]: less than 0.001%
concentration at which proliferation reached a maximum value [1]: 0.1%
concentration at which proliferation was inhibited [1]: 1%
preferred concentration ([1]; from results with RAK778 and RAK3599 strains): around 0.1%
concentration at which proliferation was inhibited [2]: 1%
